Here are results for one molecule from ChEMBL document CHEMBL6153170 (J Med Chem, 2025).

pIC50: −log10 of the molar value. Activity calls are given as the source filed them. The calls are words filed in the database; no cut-off is given here.

The subject of data set [1] is HepG2. Kind of data set: Cytotoxicity against human HepG2 cells assessed as reduction in cell viability at 3.3 to 10 uM incubated for 48 hrs by MTT assay. It is filed as functional, cell-based. Particulars: dose 3.3-10 µM. A general note: Tetrazolium assays rely on reduction of a dye to a coloured formazan, in cell work by metabolically active cells.
The target of data set [2] is T1, Protein deacetylase HDAC6 (Mus musculus) (UniProt Q9Z2V5).
T1 sequence (whole entry): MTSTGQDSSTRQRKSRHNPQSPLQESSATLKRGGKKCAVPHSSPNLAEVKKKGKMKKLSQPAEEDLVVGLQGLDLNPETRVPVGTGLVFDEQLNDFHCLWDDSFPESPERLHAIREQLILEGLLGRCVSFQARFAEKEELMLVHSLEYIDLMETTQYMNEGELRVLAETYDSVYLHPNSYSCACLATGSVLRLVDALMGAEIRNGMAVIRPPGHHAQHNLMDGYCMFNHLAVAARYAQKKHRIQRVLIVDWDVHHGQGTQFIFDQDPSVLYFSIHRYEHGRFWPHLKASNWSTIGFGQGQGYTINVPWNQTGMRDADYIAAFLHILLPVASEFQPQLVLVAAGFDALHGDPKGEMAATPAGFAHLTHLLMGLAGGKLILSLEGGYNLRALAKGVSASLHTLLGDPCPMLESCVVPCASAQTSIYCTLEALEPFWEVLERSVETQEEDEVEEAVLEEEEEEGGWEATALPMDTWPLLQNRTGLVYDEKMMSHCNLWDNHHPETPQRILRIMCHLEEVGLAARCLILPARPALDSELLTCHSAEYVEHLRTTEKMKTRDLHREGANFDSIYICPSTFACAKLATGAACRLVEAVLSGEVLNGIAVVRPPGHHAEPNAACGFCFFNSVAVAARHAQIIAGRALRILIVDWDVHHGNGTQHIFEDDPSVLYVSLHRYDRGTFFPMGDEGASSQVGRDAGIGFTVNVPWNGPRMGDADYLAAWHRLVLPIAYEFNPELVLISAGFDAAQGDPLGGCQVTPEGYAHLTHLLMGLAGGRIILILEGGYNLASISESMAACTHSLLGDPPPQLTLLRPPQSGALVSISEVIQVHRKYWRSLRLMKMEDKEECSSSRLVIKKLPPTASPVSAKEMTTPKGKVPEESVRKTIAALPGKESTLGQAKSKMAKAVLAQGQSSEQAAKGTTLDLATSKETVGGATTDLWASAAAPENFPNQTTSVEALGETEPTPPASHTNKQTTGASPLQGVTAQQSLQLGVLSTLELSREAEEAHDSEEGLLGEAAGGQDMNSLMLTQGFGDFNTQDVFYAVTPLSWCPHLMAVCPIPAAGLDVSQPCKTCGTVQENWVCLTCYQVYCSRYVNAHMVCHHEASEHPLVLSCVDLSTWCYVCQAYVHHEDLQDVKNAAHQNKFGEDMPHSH
Kind of data set: Inhibition of HDAC6 in mouse B16-F10 cells assessed as increase in acetylated alpha-tubulin level incubated for 12 hrs by Western blot analysis. In kind it is cell-based. Particulars: dose 0.1-2 µM. A general note: Immunoblotting shows a protein as a band on a membrane.

The target of data set [3] is T2, Histone deacetylase 8 (Mus musculus) (UniProt Q8VH37).
T2 sequence (whole entry): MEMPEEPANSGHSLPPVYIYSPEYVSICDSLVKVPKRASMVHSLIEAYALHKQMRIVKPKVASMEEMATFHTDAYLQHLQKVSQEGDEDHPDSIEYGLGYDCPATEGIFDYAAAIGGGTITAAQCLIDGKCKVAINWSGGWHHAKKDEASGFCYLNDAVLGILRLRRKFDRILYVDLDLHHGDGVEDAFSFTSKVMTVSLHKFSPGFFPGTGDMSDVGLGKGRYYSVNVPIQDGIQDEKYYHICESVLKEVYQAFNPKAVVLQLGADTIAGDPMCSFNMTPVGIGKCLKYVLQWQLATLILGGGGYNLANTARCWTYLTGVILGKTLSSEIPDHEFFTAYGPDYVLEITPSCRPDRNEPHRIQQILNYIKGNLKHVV
Kind of data set: Inhibition of HDAC8 in mouse B16-F10 cells assessed as increase in acetylated SMC3 level incubated for 12 hrs by Western blot analysis. In kind it is cell-based.

For data set [4], the target named is T3, Histone deacetylase 3 (Mus musculus) (UniProt O88895).
T3 sequence (whole entry): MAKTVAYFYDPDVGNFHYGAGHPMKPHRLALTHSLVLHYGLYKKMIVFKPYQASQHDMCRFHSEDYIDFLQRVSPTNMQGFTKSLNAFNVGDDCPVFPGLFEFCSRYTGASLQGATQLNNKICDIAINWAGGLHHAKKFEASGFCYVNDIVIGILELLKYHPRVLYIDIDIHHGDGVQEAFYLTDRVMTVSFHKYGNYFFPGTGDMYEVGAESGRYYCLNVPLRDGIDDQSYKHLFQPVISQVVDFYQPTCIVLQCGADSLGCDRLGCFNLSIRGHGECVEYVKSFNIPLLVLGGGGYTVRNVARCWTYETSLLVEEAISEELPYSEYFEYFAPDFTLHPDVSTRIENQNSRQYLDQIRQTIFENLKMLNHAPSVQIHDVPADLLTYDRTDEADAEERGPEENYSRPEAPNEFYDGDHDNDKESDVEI
Kind of data set: Inhibition of HDAC3 in mouse B16-F10 cells assessed as increase in acetylated H3 level incubated for 12 hrs by Western blot analysis. It is filed as cell-based.

In data set [5] the test system is B16-F10. Put plainly: Effect on Histone H3 protein level in mouse B16-F10 cells at 0.1 to 2 uM incubated for 12 hrs by Western blot analysis. Particulars: dose 0.1-2 µM. It is filed as functional, cell-based.
Data set [6] is described as follows: MRT (0 to t) in male Sprague-Dawley rat at 2 mg/kg, iv measured after 48 hrs by triple quadrupole mass spectrometric analysis. It is filed as ADME, organism-based. Particulars: in vivo.
Data set [7] in a line: AUC (0 to t) in male Sprague-Dawley rat at 10 mg/kg, po measured after 48 hrs by triple quadrupole mass spectrometric analysis. In kind it is ADME, organism-based. Particulars: in vivo.
A short description of data set [8]: MRT (0 to t) in male Sprague-Dawley rat at 10 mg/kg, po measured after 48 hrs by triple quadrupole mass spectrometric analysis. In kind it is ADME, organism-based. Particulars: in vivo.
A short description of data set [9]: Apparent clearance during terminal phase in male Sprague-Dawley rat at 10 mg/kg, po measured after 48 hrs by triple quadrupole mass spectrometric analysis. Particulars: in vivo. It is filed as ADME, organism-based.
Data set [10] is described as follows: In vivo inhibition of PD-L1 in C57BL/6 mouse model implanted with mouse B16-F10 cells assessed as reduction in PD-L1 protein expression in tumor at 20 mg/kg/day, ip co-administered with ACY-1215 for 14 days by Western blot analysis relative to control. It is filed as functional. Particulars: C57BL/6, B16-F10, 336 h, time 14 day.
In data set [11] the test system is B16-F10. Kind of data set: Antitumor immunity activity against mouse B16-F10 cells implanted in C57BL/6 mouse model assessed as CD3+ CD4+ T cell percentage in tumor at 20 mg/kg/day, ip co-administered with ACY-1215 for 14 days by flow cytometric analysis (reference value: 0.095 %). It is filed as functional. Particulars: time 14 day.
Data set [12] can be described thus: Toxicity in C57 mouse assessed as myelosuppression by measuring PDW level at 20 mg/kg/day, IG administered for 14 days by heat map analysis. It is filed as organism-based. Particulars: in vivo, po, 336 h, time 14 day.
Data set [13] is described as follows: Toxicity in C57 mouse assessed as change in ALT level at 20 mg/kg/day, IG administered for 14 days by heat map analysis. It is filed as organism-based. Particulars: in vivo, po, 336 h, time 14 day.
The test system of data set [14] is HepG2. Kind of data set: cells. Particulars: Homo sapiens, HepG2, 48 h.

In general, MRT last refers to the average time that molecules of a dose stay in the body. The AUC(0-t) is exposure summed from dosing to a finite time, without extrapolation to infinity. Lower therefore signals low exposure. Usually inhibition in vivo stands for the percentage by which the read-out fell short of the control. The pIC50 is the IC50 on a negative log10 scale, so that one unit is a factor of ten. Low values mean a high IC50, high ones a low IC50. With `COc1nc(-c2cccc(-c3ccccc3)c2C)ccc1CNCCCCCCC(=O)NO`, the Activity result was “Active; Mild Cytotoxicity Observed” in the data set with HepG2 [1], 7.72% with B16-F10 [11], “Non-toxic” in data set [12] and “Non-toxic” in data set [13]. Besides, in data set [2], the inhibition entry was “Dose-dependent-effect”. The inhibition entry in data set [3] and in [4] was “inactive” in each case. Besides, the result with B16-F10 [5] was inactive. In addition, the mean residence time (MRT last) at 48 h in data set [6] came to 7.06 h; in data set [8], 15.3 h. Moreover, in data set [7], the AUC(0-t) at 48 h was 872 ng·h/mL. Besides, the CLz/F in [9] amounted to 25 mL/min/kg. Besides, the inhibition in vivo at 20 mg/kg/day in [10] is approximately 62%. In the data set on HepG2 [14], this molecule had a pIC50 of 5.47.
